12 compounds from US9931347B2, “Pharmaceutical compound” (IOmet Pharma Ltd., priority 2013, dated 2018) can be followed below.

Experiment [1] addresses T1, TDO (A172 human glioblastoma cells) (Homo sapiens, UniProt P48775).
T1 construct: This assay utilised cancer cells which expressed either TDO or IDO; endogenous in cells; host or cells: A172 human glioblastoma cells
In words: A172 Kynurenine cell based assay. The note with it: 500 μM L-tryptophan, 48 hours, kynurenine by Erhlich's reagent. The method, boiled down:
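Kynurenine released into the supernatant was quantified by absorbance at 490 nm after 5 min with Erhlich's reagent. A172 cells were seeded at 30,000/well and exposed to test compound for 48 hours at 37° C. in phenol red-free RPMI containing 500 μM L-tryptophan, 10% FCS and 2 mM L-glutamine.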

The target in experiment [2] is T2, IDO (SKOV3 human ovarian adenocarcinoma cells, IFN-γ induced) (Homo sapiens, UniProt P14902).
T2 construct: IDO expression was induced in the SKOV3 cells by the addition of 500 ng/ml IFN-γ; endogenous in cells; host or cells: SKOV3 human ovarian adenocarcinoma cells, induced with IFN-γ
T2 sequence (P14902 whole entry): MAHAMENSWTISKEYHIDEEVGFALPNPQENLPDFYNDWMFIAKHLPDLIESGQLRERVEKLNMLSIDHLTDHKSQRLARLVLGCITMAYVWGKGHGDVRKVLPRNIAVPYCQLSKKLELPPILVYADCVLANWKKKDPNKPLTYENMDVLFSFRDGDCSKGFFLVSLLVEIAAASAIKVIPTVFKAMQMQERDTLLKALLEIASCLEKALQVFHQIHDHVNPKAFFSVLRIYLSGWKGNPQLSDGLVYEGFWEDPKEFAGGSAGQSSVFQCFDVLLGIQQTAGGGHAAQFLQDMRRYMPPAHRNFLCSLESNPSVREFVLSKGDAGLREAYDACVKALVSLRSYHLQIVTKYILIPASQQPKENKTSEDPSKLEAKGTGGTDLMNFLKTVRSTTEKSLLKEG
In words: SKOV3 Kynurenine cell based assay. The note with it: IDO induced by 500 ng/ml IFN-γ, 500 μM L-tryptophan, 48 hours. The method, boiled down: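 Kynurenine in the supernatant, detected by Ehrlich's reagent, served as read-out after 48 h at 37° C with or without test compound. SKOV3 cells (40,000/well) were grown in phenol red-free RPMI, 10% FCS, 2 mM L-glutamine, 500 μM L-tryptophan, with 500 ng/ml IFN-γ to induce IDO.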

For experiment [3], the target named is Recombinant human IDO (Homo sapiens, UniProt P14902). In words: hIDO biochemical coupled assay. The conditions noted are these: 45 μM L-tryptophan, coupled with kynurenine formamidase. The method, boiled down:
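Recombinant human IDO incubated in 50 mM KPO4 (pH 7.0), 0.5 mM EGTA, 0.5 mM EDTA, 0.05% Triton X100, 20 mM ascorbate, 10 μM methylene blue, 500 U/ml catalase and 50 μg/ml kynurenine formamidase. N-formylkynurenine converted to kynurenine, quantified by fluorescence after Ehrlich's reagent.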

For experiment [4], the target named is Recombinant human TDO (Homo sapiens, UniProt P48775). In words: hTDO biochemical coupled assay. The note with it: 330 μM L-tryptophan, coupled with kynurenine formamidase. An outline of the steps:
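Recombinant human TDO with 330 μM L-tryptophan in 50 mM KPO4 pH 7.0 containing EGTA, EDTA, Triton X100, ascorbate, methylene blue, catalase and kynurenine formamidase (KynB), 17 min at room temperature. Stopped with Ehrlich's reagent, 5 min, then kynurenine fluorescence read (Ex475, Em530).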

T1 sequence (P48775 whole entry): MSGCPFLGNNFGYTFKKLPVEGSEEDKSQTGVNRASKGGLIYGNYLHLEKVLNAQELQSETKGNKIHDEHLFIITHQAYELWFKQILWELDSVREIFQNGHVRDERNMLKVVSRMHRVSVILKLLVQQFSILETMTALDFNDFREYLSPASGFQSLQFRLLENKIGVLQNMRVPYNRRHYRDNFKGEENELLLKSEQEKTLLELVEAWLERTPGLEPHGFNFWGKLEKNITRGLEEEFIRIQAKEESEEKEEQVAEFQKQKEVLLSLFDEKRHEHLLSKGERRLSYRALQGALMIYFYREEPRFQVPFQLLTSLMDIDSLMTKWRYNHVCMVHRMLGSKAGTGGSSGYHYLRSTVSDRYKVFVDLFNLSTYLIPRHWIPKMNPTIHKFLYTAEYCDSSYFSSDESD
Sequence of Recombinant human TDO (P48775 whole entry): as above
Sequence of Recombinant human IDO (P14902 whole entry): as the sequence (P14902 whole entry) above

As to `CC(C)OCC(=O)N1CC=C(c2c[nH]c3cc(F)ccc23)CC1` [Compound 163], the “A172 Kynurenine cell based assay pIC50” value in experiment [1] was “+++ (+++ = pIC50 ≥6.00)”. The “SKOV3 Kynurenine cell based assay pIC50” value in experiment [2] is recorded as “+ (+ = pIC50 4.00-4.99)”. For the same compound, in experiment [3], the “hIDO biocehmical assay pIC50” value is given as “+− (+− = pIC50 <4.00)”. The “hTDO biochemical assay pIC50” value in experiment [4] is “++ (++ = pIC50 5.00-5.99)”.

As for `COC(=O)c1ccccc1S(=O)(=O)N1CCC(c2c[nH]c3ccc(C#N)cc23)CC1` [Compound 56], the “A172 Kynurenine cell based assay pIC50” value in experiment [1] was “+− (+− = pIC50 <4.00)”. The “SKOV3 Kynurenine cell based assay pIC50” value in experiment [2] is “++ (++ = pIC50 5.00-5.99)”. For the same compound, the “hIDO biocehmical assay pIC50” value in experiment [3] is reported as “+− (+− = pIC50 <4.00)”. Besides, in experiment [4], the “hTDO biochemical assay pIC50” value was “+− (+− = pIC50 <4.00)”.

As for `FC(F)(F)CN1CCC(c2c[nH]c3ccccc23)CC1` [Compound 10], the “A172 Kynurenine cell based assay pIC50” value in experiment [1] is given as “+ (+ = pIC50 4.00-4.99)”. For the same compound, in experiment [2], the “SKOV3 Kynurenine cell based assay pIC50” value is listed as “+− (+− = pIC50 <4.00)”. Moreover, the “hIDO biocehmical assay pIC50” value in experiment [3] is listed as “+− (+− = pIC50 <4.00)”. The “hTDO biochemical assay pIC50” value in experiment [4] is listed as “+− (+− = pIC50 <4.00)”.

With `CC(=O)N1CC=C(c2c[nH]c3cc(Cl)ccc23)CC1` [Compound 79], in experiment [1], the “A172 Kynurenine cell based assay pIC50” value is recorded as “++ (++ = pIC50 5.00-5.99)”. Moreover, the “SKOV3 Kynurenine cell based assay pIC50” value in experiment [2] is reported as “+ (+ = pIC50 4.00-4.99)”. The “hIDO biocehmical assay pIC50” value in experiment [3] is given as “+− (+− = pIC50 <4.00)”. The “hTDO biochemical assay pIC50” value in experiment [4] is given as “++ (++ = pIC50 5.00-5.99)”.

In the case of `Cc1cc(C(=O)N2CCC(c3c(C)[nH]c4ccccc34)CC2)no1` [Compound 8], the “A172 Kynurenine cell based assay pIC50” value in experiment [1] is recorded as “+− (+− = pIC50 <4.00)”. In addition, in experiment [2], the “SKOV3 Kynurenine cell based assay pIC50” value is reported as “+ (+ = pIC50 4.00-4.99)”. In addition, the “hIDO biocehmical assay pIC50” value in experiment [3] is on record as “+− (+− = pIC50 <4.00)”. Further, the “hTDO biochemical assay pIC50” value in experiment [4] was “+− (+− = pIC50 <4.00)”.

Regarding `O=S(=O)(c1ccccc1Br)N1CCC(c2c[nH]c3ccccc23)CC1` [Compound 21], in experiment [1], the “A172 Kynurenine cell based assay pIC50” value is “+ (+ = pIC50 4.00-4.99)”. The “SKOV3 Kynurenine cell based assay pIC50” value in experiment [2] is recorded as “+ (+ = pIC50 4.00-4.99)”. Further, the “hIDO biocehmical assay pIC50” value in experiment [3] is recorded as “+− (+− = pIC50 <4.00)”. The “hTDO biochemical assay pIC50” value in experiment [4] is “+− (+− = pIC50 <4.00)”.

As to `CC(=O)N1CC=C(c2c[nH]c3cccc(F)c23)CC1` [Compound 77], the “A172 Kynurenine cell based assay pIC50” value in experiment [1] was “+ (+ = pIC50 4.00-4.99)”. Also, the “SKOV3 Kynurenine cell based assay pIC50” value in experiment [2] is on record as “+ (+ = pIC50 4.00-4.99)”. Further, the “hIDO biocehmical assay pIC50” value in experiment [3] is recorded as “+− (+− = pIC50 <4.00)”. For the same compound, the “hTDO biochemical assay pIC50” value in experiment [4] is listed as “+ (+ = pIC50 4.00-4.99)”.

Turning to `COc1ccc(Br)cc1S(=O)(=O)N1CCC(c2c[nH]c3ccc(F)cc23)CC1` [Compound 27], the “A172 Kynurenine cell based assay pIC50” value in experiment [1] is on record as “+ (+ = pIC50 4.00-4.99)”. The “SKOV3 Kynurenine cell based assay pIC50” value in experiment [2] was “+ (+ = pIC50 4.00-4.99)”. Further, the “hIDO biocehmical assay pIC50” value in experiment [3] is on record as “+− (+− = pIC50 <4.00)”. The “hTDO biochemical assay pIC50” value in experiment [4] was “+− (+− = pIC50 <4.00)”.

Turning to `CC(=O)N1CC=C(c2c[nH]c3ccc(Cl)cc23)CC1` [Compound 165], the “A172 Kynurenine cell based assay pIC50” value in experiment [1] is “++ (++ = pIC50 5.00-5.99)”. Moreover, the “SKOV3 Kynurenine cell based assay pIC50” value in experiment [2] is on record as “+ (+ = pIC50 4.00-4.99)”. For the same compound, in experiment [3], the “hIDO biocehmical assay pIC50” value is recorded as “+− (+− = pIC50 <4.00)”. The “hTDO biochemical assay pIC50” value in experiment [4] is reported as “+ (+ = pIC50 4.00-4.99)”.

On to `CCCC(=O)N1CCC(c2c[nH]c3ccccc23)CC1` [Compound 83], for which, in experiment [1], the “A172 Kynurenine cell based assay pIC50” value was “+ (+ = pIC50 4.00-4.99)”. In addition, the “SKOV3 Kynurenine cell based assay pIC50” value in experiment [2] is listed as “+− (+− = pIC50 <4.00)”. Further, the “hIDO biocehmical assay pIC50” value in experiment [3] is given as “+− (+− = pIC50 <4.00)”. For the same compound, the “hTDO biochemical assay pIC50” value in experiment [4] is “+− (+− = pIC50 <4.00)”.

On to `CC(=O)N1CCC(C2CNc3cc(F)ccc32)CC1` (stereo not drawn) [Compound 179], for which the “A172 Kynurenine cell based assay pIC50” value in experiment [1] was “+ (+ = pIC50 4.00-4.99)”. Further, the “SKOV3 Kynurenine cell based assay pIC50” value in experiment [2] is listed as “+− (+− = pIC50 <4.00)”. Moreover, the “hIDO biocehmical assay pIC50” value in experiment [3] is reported as “+− (+− = pIC50 <4.00)”. The “hTDO biochemical assay pIC50” value in experiment [4] is listed as “+− (+− = pIC50 <4.00)”.

As to `NS(=O)(=O)N1CC=C(c2c[nH]c3ccccc23)CC1` [Compound 162], the “A172 Kynurenine cell based assay pIC50” value in experiment [1] is “+++ (+++ = pIC50 ≥6.00)”. Further, the “SKOV3 Kynurenine cell based assay pIC50” value in experiment [2] is listed as “+− (+− = pIC50 <4.00)”. Further, the “hIDO biocehmical assay pIC50” value in experiment [3] is listed as “+− (+− = pIC50 <4.00)”. Besides, in experiment [4], the “hTDO biochemical assay pIC50” value is on record as “+++ (+++ = pIC50 ≥6.00)”.
